The values that follow come from patent US9974306B2, “Herbicidal combinations for tolerant soybean cultures” (priority 2012, dated 2018).

The test system of data set [1] is POLCO. Put plainly: Post-emergence greenhouse treatment, visual rating of herbicidal effect. The conditions noted are these: for Effect (%): POLCO. The format is in vivo, Polygonum convolvulus. The protocol:
(§1) Seeds of grass and broadleaf weeds were sown in pots (diameter: 8 cm) filled with a sandy loam soil. For the herbicide post-emergent treatment, the weeds were grown under optimal conditions up to a growth stage of BBCH 11 (1-2 leaf stage) to 14 (3-4 leaf stage) depending on species. The following weeds were used:
(§2) The applications were performed by post emergence treatments on the planted pots using a spray volume of 300 L water per hectare. The herbicides were applied alone and in combination as in the tables below.
(§3) The trial was conducted in the greenhouse ensuring optimal growing conditions.
(§4) The herbicidal effects were assessed 14 and 24 days following application by visual ratings comparing treated and untreated plants (0%=no effect to 100%=complete die-off).
(§5) The visual ratings are used to calculate interactions between treatments alone and combination treatments according to S. R. Colby, Weeds 15, pages 20 to 22 (1967).

Data set [2] concerns SETFA. Described as above. The format is in vivo, Setaria faberi. The conditions noted are these: 1-2 leaf. The procedure:
as §1, §2, §3, §4, §5

Data set [3] concerns GLXMA GM_W336. Kind of data set: Post-emergence greenhouse treatment, visual rating of effect on W336 transgenic (HPPD inhibitor tolerant) soybean. Type of data set: in vivo. The following applies: for Effect (%): GLXMA GM_W336. The protocol:
(§6) The soybeans were grown under the same conditions as described above. The following three varieties were used in the tests:
(§7) 1) W336—Transgenic soybean plants comprising a chimeric gene encoding a W336 mutant HPPD protein of Pseudomonas fluorescens (U.S. Pat. No. 6,245,968) fused to the optimized transit peptide for chloroplast targeting (U.S. Pat. No. 5,510,471), and under the control of the 35S CaMV promoter (Odell et al., 1985, Nature 313: 810-812) fused to the 5′ enhancer sequence of TEV (Carrington and Freed, 1990, J. Virol. 64: 1590-1597), with as 3′ transcript termination and polyadenylation region that of the CaMV 35S gene (Sanfacon et al., 1991, Genes & Development 5:141-149), abbreviated as “W336 soybean plants” herein. 2) MERLIN—conventional 3) PROTINA—conventional
(§8) Two sets of soybeans reaching different growth stages at application time were prepared: one up to growth stage BBCH 11 (1-2 leaf stage) and the other up to BBCH 13 (3-4 leaf stage). Both soybean sets were treated at the same time (together with the weeds) but they were evaluated separately.
as §2, §3, §4, §5

For data set [4], the system named is BIDPI. Kind of data set: Post-emergence greenhouse treatment, visual rating of herbicidal effect. Type of data set: in vivo, Bidens pilosa. The procedure: as §1, §2, §3, §4, §5
For data set [5], the system named is BRAPP. The description is as above. Type of data set: in vivo, Brachiaria platyphylla. The conditions noted are these: for Effect (%): BRAPP. The procedure:
as §1, §2, §3, §4, §5

The test system of data set [6] is GLXMA Protina. Kind of data set: Post-emergence greenhouse treatment, visual rating of effect on conventional soybean PROTINA. The format is in vivo. The conditions noted are these: for Effect (%): GLXMA Protina. The protocol: as §6, §7, §8, §2, §3, §4, §5
In data set [7] the test system is SETVI. Put plainly: Post-emergence greenhouse treatment, visual rating of herbicidal effect. The format is in vivo, Setaria viridis. The conditions noted are these: 1-2 leaf; for Effect (%): SETVI, assessment 24 d; for Effect: 24 d. The procedure: as §1, §2, §3, §4, §5
In data set [8] the test system is SORHA. Described as above. The format is in vivo, Sorghum halepense. The procedure:
as §1, §2, §3, §4, §5

The test system of data set [9] is GLXMA Merlin. Kind of data set: Post-emergence greenhouse treatment, visual rating of effect on conventional soybean MERLIN. Type of data set: in vivo. The following applies: for Effect (%): GLXMA Merlin, assessment 24 d. The protocol: as §6, §7, §8, §2, §3, §4, §5
In data set [10] the test system is EPHHL. Kind of data set: Post-emergence greenhouse treatment, visual rating of herbicidal effect. The format is in vivo, Euphorbia heterophylla. The protocol: as §1, §2, §3, §4, §5
The test system of data set [11] is PHBPU. The description is as above. Type of data set: in vivo, Pharbitis purpurea. The protocol: as §1, §2, §3, §4, §5
Where [12] appears, read: 1-2 leaf, assessment 24 d, (A1) alone 2.5 g a.i./ha.
The mark [13] stands for this setting: 1-2 leaf, assessment 24 d, (A1) alone 5 g a.i./ha.
The mark [14] stands for this setting: 3-4 leaf, assessment 14 d, (A1) alone 5 g a.i./ha.
Setting [15] is: 1-2 leaf, assessment 24 d, (A1) alone 10 g a.i./ha.
Setting [16] is: 1-2 leaf, 24 d, 10 g a.i./ha alone.
The mark [17] stands for this setting: 3-4 leaf, 14 d, 5 g a.i./ha alone.
The mark [18] stands for this setting: 3-4 leaf, 14 d, 20 g a.i./ha alone.
Where [19] appears, read: 1-2 leaf, 14 d, 20 g a.i./ha alone.
The mark [20] stands for this setting: 1-2 leaf, 24 d, 5 g a.i./ha alone.
[21] abbreviates: 1-2 leaf, 24 d, 20 g a.i./ha alone.

On to `CS(=O)(=O)c1ccc(C(=O)C2C(=O)CCCC2=O)c(Cl)c1COCC(F)(F)F` [(A1), 2-{2-chloro-4-mesyl-3-[(2,2,2-trifluoroethoxy)methyl]benzoyl}cyclohexane-1,3-dione], for which the “Effect (%)” value in data set [1] (setting [12]) is recorded as 0%; in data set [1] (setting [13]) it was 0%; in [1] (setting [14]) it was 10%; in data set [2] (SETFA, assessment 24 d, (A1) alone 2.5 g a.i./ha), 0%; in data set [3] (setting [12]), 15%; in data set [3] (setting [13]), 15%. Moreover, the “Effect (%)” value in data set [3] (setting [15]) is recorded as 15%; in [3] (setting [14]) it was 20%; in data set [4] (BIDPI, 3-4 leaf, assessment 14 d, (A1) alone 5 g a.i./ha), 10%; in data set [5] (setting [13]), 10%; in data set [5] (setting [15]), 10%; in data set [5] (setting [14]) it was 25%. The “Effect (%)” value in data set [6] (setting [12]) turned out to be 65%; in [6] (setting [13]), 75%; in data set [6] (setting [14]) it was 55%; in [7] ((A1) alone 5 g a.i./ha), 40%; in [7] ((A1) alone 10 g a.i./ha), 40%; in [8] (SORHA, 1-2 leaf, assessment 24 d, (A1) alone 5 g a.i./ha), 20%. The “Effect (%)” value in data set [9] (1-2 leaf, (A1) alone 5 g a.i./ha) was 75%; in data set [9] (1-2 leaf, (A1) alone 10 g a.i./ha), 80%.

As for `CS(=O)(=O)c1ccc(C(=O)C2C(=O)CCCC2=O)c([N+](=O)[O-])c1` [(A2), 2-(4-mesyl-2-nitrobenzoyl)cyclohexane-1,3-dione], the Effect amounted to 20% in data set [1] (setting [16]); 20% in data set [1] (setting [17]); 65% in data set [1] (setting [18]); 20% in data set [3] (setting [19]); 15% in [3] (setting [20]); 15% in data set [3] (setting [16]). In addition, the Effect is given as 25% in data set [3] (setting [21]); 15% in data set [3] (setting [17]); 25% in data set [3] (setting [18]); 30% in data set [10] (setting [19]); 10% in [10] (setting [16]); 10% in [10] (setting [21]). Also, the Effect was 75% in [11] (setting [16]); 20% in data set [4] (setting [21]); 50% in [5] (setting [19]); 25% in [5] (setting [16]); 35% in data set [5] (setting [21]); 45% in [6] (setting [19]). The Effect in data set [6] (setting [20]) came out at 15%; in data set [6] (setting [16]), 20%; in [6] (setting [21]), 40%; in data set [6] (setting [18]) it was 50%; in [7] (5 g a.i./ha alone), 0%; in data set [8] (setting [20]) it was 0%. Further, the Effect in [8] (setting [17]) is given as 0%; in data set [8] (setting [18]), 15%; in data set [9] (setting [17]) it was 30%.

As for `CS(=O)(=O)c1cc(C(F)(F)F)ccc1C(=O)c1cnoc1C1CC1` [(A4), (5-cyclopropyl-1,2-oxazol-4-yl)(α,α,α-trifluoro-2-mesyl-p-tolyl)methanone], the Effect in [3] (1-2 leaf, 24 d, 20 g a.i./ha) was found to be 10%; in [3] (3-4 leaf, 14 d, 10 g a.i./ha), 10%; in [11] (3-4 leaf, 14 d, 10 g a.i./ha) it was 40%; in [5] (3-4 leaf, 14 d, 10 g a.i./ha), 15%; in [6] (1-2 leaf, 24 d, 20 g a.i./ha) it was 75%; in data set [6] (3-4 leaf, 14 d, 10 g a.i./ha), 35%. Further, the Effect came out at 10% in data set [7] (20 g a.i./ha) and 40% in [8] (1-2 leaf, 24 d, 20 g a.i./ha).

Consider `Cc1c(C(=O)c2cnn(C)c2O)ccc(S(C)(=O)=O)c1C1=NOCC1` [(A5), [3-(4,5-dihydro-1,2-oxazol-3-yl)-4-mesyl-o-tolyl](5-hydroxy-1-methylpyrazol-4-yl)methanone], for which the Effect in data set [2] (24 d, 1.5 g a.i./ha) is on record as 30%; in data set [3] (1-2 leaf, 24 d, 1.5 g a.i./ha) it was 15%; in data set [3] (3-4 leaf, 14 d, 3 g a.i./ha), 30%; in data set [3] (3-4 leaf, 24 d, 3 g a.i./ha) it was 30%; in [11] (1-2 leaf, 24 d, 1.5 g a.i./ha), 30%; in data set [4] (3-4 leaf, 14 d, 3 g a.i./ha) it was 25%. For the same molecule, the Effect in [4] (3-4 leaf, 24 d, 3 g a.i./ha) came to 10%; in data set [6] (3-4 leaf, 14 d, 3 g a.i./ha), 50%; in [6] (3-4 leaf, 24 d, 3 g a.i./ha), 50%; in data set [8] (3-4 leaf, 14 d, 3 g a.i./ha), 15%; in [8] (3-4 leaf, 24 d, 3 g a.i./ha), 10%; in [9] (1-2 leaf, 24 d, 1.5 g a.i./ha), 55%.

Turning to `COCCOCc1nc(C(F)(F)F)ccc1C(=O)C1=C(O)C2CCC(C2)C1=O` (stereo not drawn) [(A6), 4-hydroxy-3-{2-[(2-methoxyethoxy)methyl]-6-(trifluoromethyl)-3-pyridylcarbonyl}bicyclo[3.2.1]oct-3-en-2-one], the Effect amounted to 50% in data set [1] (3-4 leaf, 14 d, 10 g a.i./ha); 50% in [1] (3-4 leaf, 14 d, 20 g a.i./ha); 35% in data set [1] (3-4 leaf, 24 d, 10 g a.i./ha); 15% in [2] (14 d, 5 g a.i./ha); 5% in data set [3] (1-2 leaf, 14 d, 5 g a.i./ha); 25% in data set [3] (3-4 leaf, 14 d, 10 g a.i./ha). For the same molecule, the Effect in data set [3] (3-4 leaf, 14 d, 20 g a.i./ha) is listed as 30%; in [3] (3-4 leaf, 24 d, 10 g a.i./ha) it was 25%; in [3] (3-4 leaf, 24 d, 20 g a.i./ha) it was 30%; in [10] (3-4 leaf, 24 d, 10 g a.i./ha), 40%; in data set [4] (3-4 leaf, 24 d, 20 g a.i./ha), 30%; in [5] (3-4 leaf, 14 d, 10 g a.i./ha), 15%. Also, the Effect in data set [5] (3-4 leaf, 14 d, 20 g a.i./ha) is 25%; in [5] (3-4 leaf, 24 d, 20 g a.i./ha), 15%; in data set [6] (1-2 leaf, 14 d, 5 g a.i./ha) it was 50%; in data set [6] (3-4 leaf, 14 d, 10 g a.i./ha) it was 45%; in data set [6] (3-4 leaf, 14 d, 20 g a.i./ha), 60%; in [8] (1-2 leaf, 14 d, 5 g a.i./ha), 0%. Besides, the Effect in data set [9] (3-4 leaf, 24 d, 10 g a.i./ha) is recorded as 50%; in data set [9] (3-4 leaf, 24 d, 20 g a.i./ha), 50%.
